The IC50 is the point on the concentration scale where inhibition reaches its midpoint. A lower IC50 goes with inhibition by little substance.

Common to all, as to format: cell-based, HCV
Assay [1] relates to Genotype-1a template NS3 shuttle vector (H77NS3) replicon. The assay is described as follows: Replicon phenotypic assay (transient replicon, firefly luciferase), Genotype-1a template NS3 shuttle vector. The settings on record: Hepatitis C virus, Huh-7; H77 NS3 replicon in cured Huh7 cells; inhibitor added 24 h post-transfection, luciferase read 72 h later. The method, then: (§1) Five micrograms of DNA plasmids were linearized by Sca I restriction enzyme (Roche). After overnight digestion at 37° C., the DNA was purified using Qiagen PCR purification kit. One microgram of linearized DNA was used for the in vitro transcription using T7 Mega script kit following manufacturer's protocol (Ambion). After 2 hours of incubation at 37° C., DNase treatment was performed for 30 minutes at 37° C. to remove the DNA template. In vitro transcribed RNA was then purified using NucAway Spin Column following manufacturer's protocol (Ambion).
(§2) Cured hepatoma cell line Huh7 were cultured at 37° C. in a humidified atmosphere with 5% CO2 in Dulbecco's Modified Eagle Medium (DMEM) supplemented with Glutamax™ and 100 mg/ml sodium pyruvate (Cat# 10569-010). The medium was further supplemented with 10% (v/v) FBS (Cat# 16000-036) and 1% (v/v) penicillin/streptomycin (Cat# 15140-122). All reagents were from Invitrogen/Gibco.
(§3) Four million cured Huh7 cells were transfected with 5 μg of in vitro transcribed RNA using electroporation. […] Inhibitors were added 24 hours post-transfection in 3 fold dilutions at a final DMSO concentration of 1% and firefly luciferase reporter signal was read 72 hours after addition of inhibitors using the Luciferase Assay system (Promega, cat #E1501). […]
A general note: In antiviral work, replicon cells carry a viral genome segment that copies itself.

Assay [2] relates to replicon containing patient-derived NS3 TN132-1 (NS3 V36M, GT1a clinical isolate TN132). Nature of the assay: Replicon phenotypic assay, replicon containing patient-derived NS3 TN132-1. The settings on record: Hepatitis C virus, Huh-7. The protocol:
as §1, §2, §3

Assay [3] deals with replicon containing patient-derived NS3 TN132-2 (NS3 V36M, GT1a clinical isolate TN132). Nature of the assay: Replicon phenotypic assay, replicon containing patient-derived NS3 TN132-2. The settings on record: Hepatitis C virus, Huh-7. The protocol:
as §1, §2, §3

Assay [4] relates to replicon containing patient-derived NS3 TN132-6 (NS3 V36M, GT1a clinical isolate TN132). Nature of the assay: Replicon phenotypic assay, replicon containing patient-derived NS3 TN132-6. The settings on record: Hepatitis C virus, Huh-7. The protocol:
as §1, §2, §3

Assay [5] has as its system replicon containing patient-derived NS3 2209-23. The assay is described as follows: Replicon phenotypic assay, replicon containing patient-derived NS3 2209-23. The settings on record: Hepatitis C virus, Huh-7; 2209-23 replicon in cured Huh7 cells; inhibitor added 24 h post-transfection, luciferase read 72 h later. The method, then: as §1, §2, §3
In assay [6] the test system is replicon containing patient-derived NS3 of sample TN-132 (V36M mutation in the NS3 gene). The assay is described as follows: Replicon phenotypic assay, patient sample TN-132. The settings on record: sample TN-132 carrying V36M mutation in the NS3 gene. The protocol: as §1, §2, §3

For the compound `CCC[C@H](NC(=O)[C@@H]1[C@H]2CCC[C@H]2CN1C(=O)[C@@H](NC(=O)[C@@H](NC(=O)c1cnccn1)C1CCCCC1)C(C)(C)C)C(=O)C(=O)NC1CC1` [VX-950], the IC50 in assay [1] came to 440 nM; in assay [2], 2370 nM; in assay [3] it was 2610 nM; in assay [4] it was 1470 nM; in assay [5], 630 nM. The “sensitivity of sample TN-132 to the inhibitor” value in assay [6] is recorded as “reduced sensitivity”.
